The nature of data set [1]: Log P by HPLC on reversed phase columns (EEC directive 79/831 Annex V.A8). The note with it: LC-UV. The class given is physicochemical. The method, then:
Measurement of Log P values was performed according to EEC directive 79/831 Annex V.A8 by HPLC (High Performance Liquid Chromatography) on reversed phase columns with the following methods: • ^[a] Log P value is determined by measurement of LC-UV, in an acidic range, with 0.1% formic acid in water and acetonitrile as eluent (linear gradient from 10% acetonitrile to 95% acetonitrile). • ^[b] Log P value is determined by measurement of LC-UV, in a neutral range, with 0.001 molar ammonium acetate solution in water and acetonitrile as eluent (linear gradient from 10% acetonitrile to 95% acetonitrile). […] Lambda-max-values were determined using UV-spectra from 200 nm to 400 nm and the peak values of the chromatographic signals.

Data set [2] is described as follows: Hydrolysis stability test in homogeneous aqueous solution. The class given is physicochemical. An excerpt:
Stability Towards Hydrolysis in Homogeneous Aqueous Solution—Hydrolysis Stability Test The chemical stability towards hydrolysis of the phenylamidines described in the prior art is good but an improved stability may be an advantage during the preparation and formulation processes in a large scale. The improved stability towards hydrolysis was proven by a hydrolysis stability test as described below: To produce a suitable preparation of active compound for the hydrolysis stability test, a 1000 ppm stock solution (1 mg/mL) of active compound in acetonitrile is prepared. Three aliquots of 100 μL are pipetted into HPLC vials and diluted with 750 μL acetonitrile. In each vial 850 μL of the appropriate buffer solution (pH4, pH7 and pH9, CertiPUR, Fa. Merck) is added. The buffer containing HPLC vials are incubated in a heated sample tray at 50° C. for 24 hours. The amount A of the active compound is analyzed by HPLC (UV-peak areas at 210 nm) at eight points in time t: 0 min, 140 min, 350 min, 560 min, 770 min, 980 min, 1190 min, 1400 min. The half-life time (T1/2) of each active compound is calculated via linear regression by using the following equations (first order degradation assumed): [formula] [formula] In table III the results of the hydrolysis stability test are shown for the compounds (I-01), (I-02), (I-03) and (I-04) at various pH-values. […] 337 known from WO2008/110278. […] This increased stability will be of advantage during the preparation and formulation processes in a large scale compared to known amidines. The data are to be seen merely by way of example and are not limiting for the purposes of the invention.

Data set [3] is described as follows: Photolysis stability test. It counts as physicochemical. The text has this: Stability Towards Photolysis—Photolysis Stability Test
The stability towards photolysis of the phenylamidines described in the prior art is good but an improved stability towards photolysis may be an advantage as it could offer a longer lasting efficacy when applied to plants by foliar application. The improved stability towards photolysis was proven by a […] as described below: To produce a suitable preparation of active compound for the photolysis stability test, a 1000 ppm stock solution (1 mg/mL) of active compound in acetonitrile is prepared. Aliquots of 25 μL of this stock solution are pipetted in three wells of a Bio-one microtiter plate (MTP) UVStar 96 (Fa. Greiner, Art. No. 655801). The MTP is dried overnight in the dark and then irradiated at 30° C. and 480 W/m^2 with a UV irradiation device SUNTEST XLS+ or SUNTEST CPS (Fa. Atlas). The amount A of the active compound is analyzed by HPLC (UV-peak areas at 210 nm) at five points in time t: 0 h, 2 h, 4 h, 6 h, 24 h by using the following method: 200 μL acetonitrile is added in the respective well of the MTP and the MTP is sealed with a Bio-one sealing foil, viewseal 80/140 mm (Fa. Greiner, Art. No. 676070). The MTPs are sonicated for 3 minutes and analysed by HPLC. The half-life time (T) of each active compound is calculated via linear regression by using the following equations (first order degradation assumed): […]
In table IV the results of the photolysis stability test are shown for the compounds (I-01), (I-02), (I-03) and (I-04). […] This increased chemical stability towards photolysis will be of advantage as it will offer a longer lasting efficacy when applied to plants by foliar application compared to known amidines. The data are to be seen merely by way of example and are not limiting for the purposes of the invention.

The next data set relates to Phakopsora pachyrhizi. Put plainly: In vivo preventive test on Phakopsora (soybeans). The settings on record: 100 ppm of active ingredient, preventive spray on soybeans, evaluated 7 days after inoculation. The method, then:
Example: In Vivo Preventive Test on Phakopsora Test (Soybeans)
• Solvent: 24.5 parts by weight of acetone • 24.5 parts by weight of dimethylacetamide • Emulsifier: 1 part by weight of alkylaryl polyglycol ether
To produce a suitable preparation of active compound, 1 part by weight of active compound is mixed with the stated amounts of solvent and emulsifier, and the concentrate is diluted with water to the desired concentration.
To test for preventive activity, young plants are sprayed with the preparation of active compound at the stated rate of application. After the spray coating has dried on, the plants are inoculated with an aqueous spore suspension of the causal agent of soybean rust (Phakopsora pachyrhizi) and stay for 24 h without light in an incubation cabinet at approximately 24° C. and a relative atmospheric humidity of 95%.
The plants remain in the incubation cabinet at approximately 24° C. and a relative atmospheric humidity of approximately 80% and a day/night interval of 12 h.
The test is evaluated 7 days after the inoculation. 0% means an efficacy which corresponds to that of the untreated control, while an efficacy of 100% means that no disease is observed.

Another data set concerns soy bean plants. Put plainly: Plant compatibility test using soy bean plants. It counts as in vivo. The settings on record: soy bean plants sprayed, 1000 ppm active compound, evaluated 6 days after application; 0% no damages, 100% totally damaged. Here is the method:
Plant Compatibility Test Using Soy Bean Plants • Solvent: 24.5 parts by weight of acetone • 24.5 parts by weight of dimethylacetamide • Emulsifier: 1 part by weight of alkylaryl polyglycol ether To produce a suitable preparation of active compound, 1 part by weight of active compound is mixed with the stated amounts of solvent and emulsifier, and the concentrate is diluted with water to the desired concentration. Young plants are sprayed with the preparation of active compound at the stated application rate. The plants are then placed in a greenhouse at approximately 21° C. and a relative atmospheric humidity of approximately 80%. The test is evaluated 6 days after application and comprises plant damages like leaf deformation, chlorosis, necrosis, shoot damage or stunting. The results are summarized in table V. 0% means no damages are observed, while 100% means that the plants are totally damaged.

Where [4] appears, read: acidic range, 0.1% formic acid in water and acetonitrile as eluent, read-out: LogP [a].
Where [5] appears, read: pH 7, read-out: T1/2 (pH 7) (converted).
Setting [6] is: pH 9, read-out: T1/2 (pH 9) (converted).
[7] abbreviates: neutral range, 0.001 molar ammonium acetate solution in water and acetonitrile as eluent, read-out: LogP [b].

Where two headings read alike, the source gives them in different places.

Regarding `CCN(C)C=Nc1cc(C)c(Oc2ccccc2Cl)cc1Cl` [Example I-05, N′-[2-chloro-4-(2-chlorophenoxy)-5-methylphenyl]-N-ethyl-N-methylimidoformamide], in data set [1] (setting [4]), the chromatographic logP was 1.58. Also, the half-life at 58.8 µg/mL in data set [2] (setting [5]) was 51 h; in data set [2] (setting [6]), 47 h.
For the compound `CCN(C)C=Nc1cc(C)c(Oc2ccccc2F)cc1Br` [Example I-03, N′-[2-bromo-4-(2-fluorophenoxy)-5-methylphenyl]-N-ethyl-N-methylimidoformamide], the chromatographic logP in data set [1] (setting [4]) amounted to 1.66; in data set [1] (setting [7]) it was 4.53. In addition, the half-life at 58.8 µg/mL in data set [2] (setting [5]) is 68 h; in data set [2] (setting [6]), 51 h. The compound further showed a half-life at 25 µg/well in data set [3] of 178 h.
On to `CCN(C)C=Nc1cc(C)c(Oc2ccccc2I)cc1Cl` [Example I-06, N′-[2-chloro-4-(2-iodophenoxy)-5-methylphenyl]-N-ethyl-N-methylimidoformamide], for which the chromatographic logP in data set [1] (setting [4]) turned out to be 1.78.
On the same count and under the same terms, next, `Cc1cc([N+](=O)[O-])c(Br)cc1Oc1ccccc1Cl` [VI-04, 4-Bromo-2-(2-chlorophenoxy)-1-methyl-5-nitrobenzene]: 4.68.
In the case of `CCN(C)C=Nc1cc(C)c(Oc2ccccc2F)cc1C(F)F` [Example I-02, N′-[2-(difluoromethyl)-4-(2-fluorophenoxy)-5-methylphenyl]-N-ethyl-N-methylimidoformamide], the chromatographic logP in data set [1] (setting [4]) is 1.76. The half-life at 58.8 µg/mL in data set [2] (setting [5]) is 160 h; in data set [2] (setting [6]) it was 140 h. The compound further showed a half-life at 25 µg/well in data set [3] of 185 h.
For the compound `Cc1cc(N)c(Br)cc1Oc1ccccc1Cl` [VIII-04, 2-Bromo-4-(2-chlorophenoxy)-5-methylaniline], in data set [1] (setting [7]), the chromatographic logP is 3.53.
As for `CCN(C)C=Nc1cc(C)c(Oc2ccccc2Br)cc1Br` [Example I-07, N′-[2-bromo-4-(2-bromophenoxy)-5-methylphenyl]-N-ethyl-N-methylimidoformamide], in data set [1] (setting [4]), the chromatographic logP came out at 1.81. The half-life at 58.8 µg/mL in data set [2] (setting [5]) is 63 h; in data set [2] (setting [6]), 57 h.
As to `CCN(C)/C=N/c1cc(C)c(Oc2ccccc2F)cc1Cl` [Example I-01, N′-[2-chloro-4-(2-fluorophenoxy)-5-methylphenyl]-N-ethyl-N-methylimidoformamide], in data set [1] (setting [4]), the chromatographic logP was found to be 1.66. Moreover, the efficacy result in the data set with Phakopsora pachyrhizi is on record as “at least 70%”. Also, the half-life at 58.8 µg/mL in data set [2] (setting [5]) is 52 h; in data set [2] (setting [6]), 47 h. This compound also came in with a half-life at 25 µg/well in data set [3] above 200 h. In the data set on soy bean plants, this compound gave a Necrosis in % of 20%.
In the data set on soy bean plants, `CCN(C)/C=N/c1cc(C)c(Oc2ccccc2)cc1C` [Compound no. 1] yielded a Necrosis in % of 90%.
The same measure, in the same setting: in the case of `CCN(C)/C=N/c1cc(C)c(Oc2ccccc2F)cc1C` [Compound no.337] it was 90%.
Regarding `CCN(C)C=Nc1cc(C)c(Oc2ccccc2Cl)cc1Br` [Example I-04, N′-[2-bromo-4-(2-chlorophenoxy)-5-methylphenyl]-N-ethyl-N-methylimidoformamide], the values for the chromatographic logP in data set [1] (setting [4]) and in data set [1] (setting [7]) were 1.84 and 4.97, respectively. The half-life at 58.8 µg/mL was 64 h in data set [2] (setting [5]) and 58 h in data set [2] (setting [6]). The compound further came in with a half-life at 25 µg/well in data set [3] above 200 h.
On to `Cc1cc([N+](=O)[O-])c(C(F)F)cc1Oc1ccccc1F` [VI-02, 1-(Difluoromethyl)-5-(2-fluorophenoxy)-4-methyl-2-nitrobenzene], for which, in data set [1] (setting [4]), the chromatographic logP worked out at 3.97.
